17 compounds from US12410185B2, “Compounds targeting mutant calreticulin” (MYELOPRO DIAGNOSTICS AND RESEARCH GmbH, priority 2018, dated 2025) can be followed below.

Like-named read-outs stand apart in the source and are kept apart here.

One series has as its system CALR mutant cell lines. The experiment in a line: cells. To be noted: for IC50: read-out: IC50 in mutant cell lines. Here is the method: (§1) Ba/F3 and UT-7-TPO were plated 5.000 cells/well and 16.000 cells/well into 96-well plates with the desirable concentrations of compounds or cytokines added to a total volume of 100 ul. 72 hours later, the CellTiter-Glo luminescent Cell Viability Assay (Promega) was used to determine the cell viability. The luminescent signal was detected by a VICTOR Multilabel Plate Reader (PerkinElmer). Dose response data was analyzed by Graphpad Prism 7.0.
(§2) To further explore the chemical space of the compound, a few hematoxylin analogues were also tested (FIGS. 15 to 17). […] The compounds Protosappanin B (A-4) and RJ002 (B-2) were also tested. […] As a comparison, the clinically used chemotherapeutic drugs hydroxyurea and ruxolitinib were also tested in the cell models.

In another series the test system is CALR wild-type cell line. The experiment in a line: 72 h dose response of hematoxylin, analogues and control compounds. The class given is cell-based. Conditions: 72 h assay. The protocol: as §1, §2
In series [1] the test system is WT cell line (UT-7 cells). The experiment in a line: IC50 of further hematoxylin derivatives (Table 3). Conditions: Homo sapiens. The class given is cell-based. The protocol: (§3) Cytotoxicity screens were performed essentially as described in Example 1.
The test system of series [2] is mutant cell line (UT-7 cells). The experiment in a line: IC50 of further hematoxylin derivatives (Table 3). To be noted: Homo sapiens. The class given is cell-based. Here is the method:
as §3

For another series, the system named is UT-7 cells. The experiment in a line: cytotoxicity screen of further hematoxylin derivatives. The class given is cell-based. To be noted: 30 uM (3 uM for compounds insoluble in 10 mM stock). Here is the method: as §3
(§4) These included HEM8 (B-18), HEM11 (B-19), HEM30 (B-20), HEM36 (B-26), HEM44 (B-34) and HEM46 (B-36) which were used at 1/10 of the concentration (1 uM for Ba/F3 and 3 uM for UT-7).

Series [3] can be described thus: solubility in 10 mM stock solution. To be noted: compounds dissolved in DMSO. The class given is physicochemical. Here is the method:
All tested compounds were dissolved in DMSO.
as §4

The subject of a further series is Ba/F3 cells. Briefly: cytotoxicity screen of further hematoxylin derivatives. The class given is cell-based, mouse. Conditions: 10 uM (1 uM for compounds insoluble in 10 mM stock). Here is the method: as §3, §4
Setting [4] is: UT7, UT-7 cells, read-out: IC50 WT cell line.
Where [5] appears, read: UT7, UT-7 cells, read-out: IC50 mutant cell line.

A word on the IC50: it is the midpoint of a concentration-inhibition curve. As for `N#CC[C@H](C1CCCC1)n1cc(-c2ncnc3[nH]ccc23)cn1` [ruxolitinib, Ruxolitinib, reference compound], in the series with CALR mutant cell lines, the “cytotoxic selectivity for mutant vs wild-type cell lines” value (“cytotoxic selectivity for mutant” for short) is reported as “mild selective effect”. The results for the IC50 with CALR mutant cell lines (72 h) and with CALR wild-type cell line (read-out: IC50 in wild-type cells) were 0.195 µM and 0.4 µM, respectively. For the same compound, in the series with CALR mutant cell lines (72 h assay), the “IC50 reduction in the mutant cell lines compared to wild-type cells” value is listed as “about 2 fold”. Turning to `NC(=O)NO` [Hydroxyurea, reference compound], the “cytotoxic selectivity for mutant” value in the series on CALR mutant cell lines is listed as “did not show any selective killing effect”. As for `CCCC(=O)Oc1cc2c(cc1OC(=O)CCC)[C@@H]1c3ccc(OC(=O)CCC)c(OC(=O)CCC)c3OC[C@]1(O)C2` [HEM47 (B-37)], the IC50 worked out at 14.7 µM in series [1] (UT7, read-out: IC50 WT cell line) and 12.4 µM in series [2] (UT7, read-out: IC50 mutant cell line). In the series with UT-7 cells, the “selectivity and potency in cytotoxicity screen” value (from here on “selectivity and potency”) is “Best results in terms of selectivity and potency”. As to Hematein [Hematein (A-3)], in the series on CALR mutant cell lines, the “cytotoxic selectivity for mutant” value was “retained the cytotoxic selectivity”. The IC50 with CALR mutant cell lines (72 h assay) was found to be 7.5 µM.

`O=C(Oc1cc2c(cc1OC(=O)c1cccc(N3C(=O)/C(=C/c4cccc(F)c4)SC3=S)c1)[C@@H]1c3ccc(OC(=O)c4cccc(N5C(=O)/C(=C/c6cccc(F)c6)SC5=S)c4)c(OC(=O)c4cccc(N5C(=O)/C(=C/c6cccc(F)c6)SC5=S)c4)c3OC[C@]1(O)C2)c1cccc(N2C(=O)/C(=C/c3cccc(F)c3)SC2=S)c1` [HEM8 (B-18)]: the “solubility in a 10 mM stock solution” value in series [3] is listed as “insoluble in a 10 mM stock solution”. Regarding `COc1cc2c(cc1OC)C1c3ccc(OC)c(OC)c3OCC1(O)C2` (centres unmarked) [NSC7251 (A-5)], in the series on CALR mutant cell lines, the “cytotoxic selectivity for mutant” value is “compromise both potency and selectivity”. As to `O=C(Oc1cc2c(cc1OC(=O)c1ccc(Cl)cc1)[C@@H]1c3ccc(OC(=O)c4ccc(Cl)cc4)c(OC(=O)c4ccc(Cl)cc4)c3OC[C@]1(OC(=O)c1ccc(Cl)cc1)C2)c1ccc(Cl)cc1` [HEM36 (B-26)], in series [3], the “solubility in a 10 mM stock solution” value is on record as “insoluble in a 10 mM stock solution”.

For the compound `CC(C)CC(=O)Oc1cc2c(cc1OC(=O)CC(C)C)[C@@H]1c3ccc(OC(=O)CC(C)C)c(OC(=O)CC(C)C)c3OC[C@]1(O)C2` [HEM46 (B-36)], in series [3], the “solubility in a 10 mM stock solution” value is given as “insoluble in a 10 mM stock solution”.

Turning to `O=C(CCN1C(=O)/C(=C/c2ccc(Cl)cc2)SC1=S)Oc1cc2c(cc1OC(=O)CCN1C(=O)/C(=C/c3ccc(Cl)cc3)SC1=S)[C@@H]1c3ccc(OC(=O)CCN4C(=O)/C(=C/c5ccc(Cl)cc5)SC4=S)c(OC(=O)CCN4C(=O)/C(=C/c5ccc(Cl)cc5)SC4=S)c3OC[C@]1(O)C2` [HEM11 (B-19)], the “solubility in a 10 mM stock solution” value in series [3] is recorded as “insoluble in a 10 mM stock solution”. Regarding `O=C(Oc1cc2c(cc1OC(=O)C(Cl)Cl)[C@@H]1c3ccc(OC(=O)C(Cl)Cl)c(OC(=O)C(Cl)Cl)c3OC[C@]1(O)C2)C(Cl)Cl` [HEM44 (B-34)], the “solubility in a 10 mM stock solution” value in series [3] is “insoluble in a 10 mM stock solution”. For `CCC(=O)Oc1cc2c(cc1OC(=O)CC)[C@@H]1c3ccc(OC(=O)CC)c(OC(=O)CC)c3OC[C@]1(O)C2` [HEM42 (B-32)], the results for the IC50 in series [1] (setting [4]) and in series [2] (setting [5]) were 26.2 µM and 20.8 µM, respectively. Besides, the “selectivity and potency” value with UT-7 cells was “Best results in terms of selectivity and potency”. For the compound `CN1C(=O)/C(=C/c2ccc(C(=O)Oc3cc4c(cc3OC(=O)c3ccc(/C=C5\SC(=S)N(C)C5=O)cc3)[C@@H]3c5ccc(OC(=O)c6ccc(/C=C7\SC(=S)N(C)C7=O)cc6)c(OC(=O)c6ccc(/C=C7\SC(=S)N(C)C7=O)cc6)c5OC[C@]3(O)C4)cc2)SC1=S` [HEM32 (B-22)], the IC50 in series [1] (setting [4]) was 18.8 µM; in series [2] (setting [5]) it was 16.1 µM. The “selectivity and potency” value in the series on UT-7 cells is “Best results in terms of selectivity and potency”. For `CC(C)(C)C(=O)Oc1cc2c(cc1OC(=O)C(C)(C)C)[C@@H]1c3ccc(OC(=O)C(C)(C)C)c(OC(=O)C(C)(C)C)c3OC[C@]1(O)C2` [HEM48 (B-38)], the “selectivity and potency” value in the series on Ba/F3 cells was “Best results in terms of selectivity and potency”.

With `CC(=O)Oc1cc2c(cc1OC(C)=O)[C@@H]1c3ccc(OC(C)=O)c(OC(C)=O)c3OC[C@]1(OC(C)=O)C2` [L-HEM1 (B-1)], the “cytotoxic selectivity for mutant” value with CALR mutant cell lines was “compromise both potency and selectivity”. Consider `CC(C)C(=O)Oc1cc2c(cc1OC(=O)C(C)C)[C@@H]1c3ccc(OC(=O)C(C)C)c(OC(=O)C(C)C)c3OC[C@]1(O)C2` [HEM40 (B-30)], for which the IC50 in series [1] (setting [4]) turned out to be 14.5 µM; in series [2] (setting [5]), 12 µM. Further, the “selectivity and potency” value in the series on UT-7 cells was “Best results in terms of selectivity and potency”.

For the compound `O=C(Oc1cc2c(cc1OC(=O)c1ccc(/C=C3\SC(=S)N(c4ccc(F)cc4)C3=O)cc1)[C@@H]1c3ccc(OC(=O)c4ccc(/C=C5\SC(=S)N(c6ccc(F)cc6)C5=O)cc4)c(OC(=O)c4ccc(/C=C5\SC(=S)N(c6ccc(F)cc6)C5=O)cc4)c3OC[C@]1(O)C2)c1ccc(/C=C2\SC(=S)N(c3ccc(F)cc3)C2=O)cc1` [HEM30 (B-20)], the “selectivity and potency” value in the series on Ba/F3 cells was “Best results in terms of selectivity and potency”. In addition, in series [3], the “solubility in a 10 mM stock solution” value is given as “insoluble in a 10 mM stock solution”. Take `Oc1ccc2c(c1)OC[C@]1(O)Cc3cc(O)c(O)cc3[C@H]21` [Brazilin (A-2), Brazilin]: the “cytotoxic selectivity for mutant” value in the series with CALR mutant cell lines is “comparable cytotoxic selectivity”. Moreover, the IC50 with CALR mutant cell lines (72 h) worked out at 1.9 µM; in the series with CALR wild-type cell line (read-out: IC50 in wild-type cell line), 6.2 µM.
